Measurements taken from patent publication US12030896B2, “PIKfyve inhibitors” (Mayo Foundation for Medical Education and Research, priority 2018, dated 2024).

Assays:
[1] = system: E2409 murine lymphoma cells; assay: E2409 lymphoma flank tumor survival study; assay type: in vivo, Nude mice; settings: 1 mg daily IP injection vs vehicle only; p<0.02
Experimental: Nude mice were injected in the flank with 1 million E2409 murine lymphoma cells, and allowed to grow for 4 days, at which point a small detectable lump was observed on each mouse. Mice were injected daily by IP injection with 100 μl of vehicle (10% dmso, 20% cremaphor, 70% water) with or without 1 mg of the test compound. Mice were euthanized when tumor size exceeded 1500 mm^3.

[2] = system: Human Glioblastoma multiforme cells (T98G, G22VF, U251) and human medulloblastoma cells (p16, p9); assay: Cell viability by cell titer-Glo luminescence (ATP level) assay; assay type: cell-based; settings: 72 hours, various concentrations
Experimental: Human Glioblastoma multiforme cells (T98G, G22VF, U251) and human medulloblastoma cells (p16, p9) were incubated with various concentrations of Example 1 for 72 hours, and then cell viability assessed by cell titer-Glo luminescence (ATP level) assay.
Methods: Example 1 was dissolved into DMSO (ATCC) at a concentration of 40 mM, this stock was further diluted to 2× the highest final working concentration into complete medium consisting of DMEM (Life Technologies), penicillin/streptomycin antibiotic solution (Life Technologies), and 10% FBS (Seradigm). This stock was dispensed into the final column of a white-walled, flat-bottomed 96-well plate (Corning). Serial dilutions (1.5× or 2× depending on the assay) were then made using complete medium down to the lowest assayed concentration of Example 1. The final column of the 96-well plate was saved as a vehicle-only control and included DMSO diluted 1:250 in complete medium. […]
These plates were placed in a 5% CO2, 37° C. incubator. After 72 hrs of incubation, relative ATP content was measured as an indirect indication of the number of viable cells per well. […] This reaction was protected from light and incubated for 10 min at room temperature, then total luminescence was read using a Synergy H1 microplate reader (Biotek).
Raw luminescence numbers or relative ATP concentration (reported as a percentage of the vehicle-treated control) are show. […]

[3] = system: Human colorectal carcinoma cell lines (HCT116, HT29); assay: Killing of colorectal carcinoma cell lines (Cell-titer glow); assay type: cell-based; settings: HCT116, HT29 vs brain tumor cell lines
Experimental: Human colorectal carcinoma cell lines were similarly tested for killing by the compound. (ATP activity is defined by use of the Cell-titer glow luminescence assay). […] All experiments were performed using RPMI media (Life Technologies) as the base formulation for “complete” media. HT29 cells require physical scraping in addition to trypsin to dissociate from tissue culture plastic.

U251 glioblastoma cells = assay: LC3 / p62 western blotting (autophagy); assay type: cell-based, human
Experimental: Macroautophagy (hereafter “autophagy”) is a process that requires precise fusion of endosomes, autophagosomes, and lysosomes. Lysates from cells treated with Example 1 were prepared and probed by western blotting for LC3-I and LC3-II. Increased levels of LC3-II and increased p62 (sequestesome) were found showing the increased drive to undergo autophagy, in the face of inability to complete the process (i.e. ineffective autophagy). Lysosomes are the final destination of proteins destined for degradation by autophagy, and proteolysis in this organelle depends upon cathepsins among other enzymes.
FIG. 23 contains images showing induction of autophagy the Example 1 as evidenced by accumulation of LC3 over time. U251 glioblastoma cells were treated with 25, 500, or 20,000 nM MC042 for the indicated time periods, and then lysates prepared and blotted for LC3 and tubulin (loading control). Starting a t 6 hours, and becoming more evident by 24 hours, LC3-II (the lower band marked LC3) accumulated, indicating activation of autophagy.

[4] = system: MPNST cells lines (S462, S462TY, 26T, T265, SNF96.2); assay: Cytotoxicity against MPNST cell lines; settings: DMEM-based medium
Description: For this reason, it was hypothesized that tumor cells that have activated RAS would have increased sensitivity to this compound. Malignant peripheral nerve sheath tumors (MPNSTs) arise in the population sporadically, and with very high frequency in patients with NF1 mutation. NF1 is a RAS suppressor, and therefore, tumors arising in the NF1-mutant background, have apriori activation of the RAS signaling pathway.

| Compound | survival [1] | cell viability (ATP level) [2] | sensitivity to compound-induced death [3] | induction of LC3 (U251 glioblastoma cells; 1 μM) | p62 degradation (U251 glioblastoma cells; 25, 500, or 20,000 nM) | LC3-II level (U251 glioblastoma cells; 25, 500, or 20,000 nM, starting at 6 hours, more evident by 24 hours) | sensitivity to compound-induced death [4] |
| --- | --- | --- | --- | --- | --- | --- | --- |
| Cc1ccc(Nc2nc(N/N=C/c3c[nH]c4ccccc34)nc(N3CCOCC3)n2)cc1 [Example 1, (E)-4-(2-((1H-indol-3-yl)methylene)hydrazinyl)-6-morpholino-N-(p-tolyl)-1,3,5-triazin-2-amine] | prolonged survival | killed effectively | more sensitive | less robust | not degraded | accumulated | – |
| Cc1ccc(Nc2nc(N/N=C/c3c[nH]c4ccccc34)cc(N3CCOCC3)n2)cc1 [Example 3, (E)-4-(2-((1H-indol-3-yl)methylene)hydrazinyl)-6-morpholino-N-(p-tolyl)pyrimidin-2-amine] | – | – | – | – | – | – | highly sensitive |
